Assays:
[1] = test system: CaCo-2 (human colorectal adenocarcinoma) cells; assay: MTT antiproliferative assay, CaCo-2; format: cell-based; conditions: 72 h, mean ± SD of three independent experiments
Method: (§1) The growth inhibition activity was assessed according to the slightly modified procedure performed at the National Cancer Institute, Developmental Therapeutics Program.
(§2) The examined compounds were dissolved in DMSO (1 × 10^−2 M). The experiments were carried out on seven human tumor cell lines and a normal cell line. The following cell lines were used: HeLa (human cervical adenocarcinoma; purchased from ATCC), CaCo-2 (human colorectal adenocarcinoma), MCF-7 (human breast adenocarcinoma), CCRF-CEM (human acute lymphoblastic leukemia), Hut78 (T-cell lymphoma), THP-1 (acute monocytic leukemia), Burkitt lymphoma (Raji), and MDCK1 (Madine–Darby canine kidney). The MDCK1 cells were used between 24 and 26 passages.
(§3) The adherent cells were cultured in Dulbecco’s modified Eagle medium—DMEM (Gibco, Termo Fisher Scientific Inc., Leicestershire, England, UK), supplemented with 10% heat-inactivated fetal bovine serum (FBS, Gibco, Termo Fisher Scientific Inc., Leicestershire, England, UK), 2 mM glutamine, and 100U/0.1mg penicillin/streptomycin. The cells in suspension were cultured in RPMI 1640 (Gibco, Termo Fisher Scientific Inc., Leicestershire, England, UK) medium, supplemented with 10% FBS (Gibco, Termo Fisher Scientific Inc., Leicestershire, England, UK), 2 mM glutamine, 1 mM sodium pyruvate, and 10 mM HEPES. The cells were grown in a humidified atmosphere under the conditions of 37 °C/5% of CO2 gas in the CO2 incubator (IGO 150 CELLlife^TM, JOUAN, Thermo Fisher Scientific, Waltham, MA, USA).
(§4) The adherent cells (HeLa, CaCo-2, MCF-7, and MDCK-1) were plated in 96-well flat bottom plates (Greiner, Frickenhausen, Austria) at a concentration of 2 × 10^4 cells/mL. The suspension cells (Raji, THP-1, CCRF-CEM and Hut78) were plated in 96-well microtiter plates (Sarstead, Newton, NC, USA) at a concentration of 1 × 10^5 cells/mL. Twenty-four hours later, the cells were treated with test agents in […] and incubated for a further 72 h. The working dilutions were freshly prepared on the day of testing. The solvent was also tested for eventual inhibitory activity by adjusting its concentration to be the same as in the working concentrations. After 72 h of incubation, the cell growth rate was evaluated by performing the MTT assay, which detects dehydrogenase activity in viable cells. For this purpose, upon completion of the incubation period, the growth medium was discarded and 50 μL of MTT was added to each well at a concentration of 5 mg/mL. After four hours of incubation at 37 °C, the water insoluble MTT-formazan crystals were dissolved in 150 μL of dimethyl-sulfoxide (DMSO) for the adherent cells and in 10% SDS with 0.01 mol/L HCl for the cells grown in suspension. The absorbance (OD, optical density) was measured on a microplate reader (iMark, BIO RAD, Hercules, CA, USA) at 595 nm.
(§5) The percentage of live cells was calculated as follows: % = OD (sample) − OD (background)/OD (control) − OD (background) × 100.
(§6) The optical density (OD) of the background for the adherent cells is the OD of the MTT solution and DMSO; the OD (background) for the suspension cells is the OD of the culture medium with MTT and 10% SDS with 0.01 mol/L HCl; the OD (control) is the OD of the cells grown without the tested compounds.
(§7) The calculation of the GI50 value curves and QC analysis was performed using the Excel tools and GraphPadPrism software (La Jolla, CA, USA), v. 5.03. Briefly, individual concentration effect curves are generated by plotting the logarithm of the concentration of the tested compounds (X) vs. the corresponding percent inhibition values (Y) using the least squares fit. The best-fit GI50 values are calculated using log (inhibitor) versus normalized response—variable slope equation, where Y Ľ 100/(1 ţ 10 ((LogIC50 _ X) × HillSlope)). The QC criteria parameters (Z0, S:B, R2, HillSlope) were checked for every GI50 curve.

[2] = test system: normal (MDCK1) and tumor cell lines; assay: MTT antiproliferative assay, ranges stated over several cell lines; format: cell-based; conditions: MDCK1; range over tumor cell lines; read-out: GI50 range, tumor cell lines
Method: as §1, §2, §3, §4, §5, §6, §7

[3] = as above; format: cell-based; conditions: human (tumor cell lines) and dog (MDCK1); abstract, range over cell lines; read-out: GI50 range (strong cytotoxic activity)
Method: as §1, §2, §3, §4, §5, §6, §7

[4] = test system: MDCK1 (Madine–Darby canine kidney) cells; assay: MTT antiproliferative assay, MDCK1; format: cell-based; conditions: mean ± SD of three independent experiments
Method: as §1, §2, §3, §4, §5, §6, §7

HuT78 cells [5] = assay: Annexin V-FITC/PI apoptosis detection; format: cell-based, human; conditions: HuT78, 5 μM, 24 h
Method: The proapoptotic potential of compounds 5d and 12d was tested on the HuT78 cells using the Annexin V-FITC Apoptosis Staining/Detection Kit (ab14085; abcam, UK). The cells were plated in 6-well plates at a concentration of 5 × 10^5 cells/well and treated for 24 h with 12d at a concentration of 5 μM. After the incubation period, the cells were collected and centrifuged at 1100 rpm for 6 min, stained according to the manufacturer‘s protocol, and analyzed by flow cytometry (BD FACSCalibur, Becton Dickinson, San Jose, CA, USA) using FlowJo software (FlowJo, LLC, Ashland, OR, USA).

HuT78 cells [6] = assay: Mitochondrial membrane potential (∆Ψm), TMRE flow cytometry; format: cell-based, human; conditions: HuT78, 5 μM, 24 h
Method: Changes in the (∆Ψm) were measured using TMRE (tetramethylrhodamine, ethyl ester and perchlorate) dye. In brief, the tested cells (HuT 78) were plated in 6-well plates at a concentration of 5 × 10^5 cells per well and treated with 5 μM of the compounds 5d and 12d. After 24 h of treatment, the cells were collected, centrifuged for 6 min at 1100 rpm, and stained with 200 nM of TMRE dye according to the kit protocol (TMRE Mitochondrial Membrane Potential Assay Kit, abcam, Cambridge, UK). The positive control cells were treated with 20 μM FCCP (carbonyl cyanide-p-trifluoromethoxyphenylhydrazone) for 10 min. The cells were analyzed by flow cytometry (BD FACSCalibur, Becton Dickinson, San Jose, CA, USA) and FlowJo software (FlowJo, LLC, Ashland, OR, USA).

Clc1ccc2c(Nc3cccc(-c4nc5ccccc5[nH]4)c3)ccnc2c1 [Compound 5d, N-(3-(1H-benzo[d]imidazol-2-yl)phenyl)-7-chloroquinolin-4-amine]
GI50 [1]: 1 ± 0.1 µM | GI50 [2]: 0.4 to 15.6 µM | GI50 at 72 h [3]: 0.4 to 8 µM | GI50 ([4]; 72 h): 20.4 ± 2.8 µM | GI50 ([4]; Canis lupus familiaris, MDCK1, 72 h): 11.4 to 20.4 µM | cells alive (HuT78 cells [5]): about 64% | cells in early apoptosis (HuT78 cells [5]): 24.75% | cells in late stage of apoptosis/necrosis (HuT78 cells [5]): 8.3% | cells with mitochondrial membrane disruption / change in ∆Ψm (HuT78 cells [6]): 23.9%

Reference: paper PMC9866588, “Novel 7-Chloro-4-aminoquinoline-benzimidazole Hybrids as Inhibitors of Cancer Cells Growth: Synthesis, Antiproliferative Activity, in Silico ADME Predictions, and Docking” (Molecules, 2023)
